Here are results for 47 molecules from US10717742B2, “Spiro[3H-indole-3,2′-pyrrolidin]-2(1H)-one compounds and derivatives as MDM2-P53 inhibitors” (Boehringer Ingelheim International GmbH, priority 2015, dated 2020).

Sequence of p53-MDM2 interaction (GST-MDM2 protein aa 23-117 / biotinylated p53 wt peptide) (Q00987 23-117): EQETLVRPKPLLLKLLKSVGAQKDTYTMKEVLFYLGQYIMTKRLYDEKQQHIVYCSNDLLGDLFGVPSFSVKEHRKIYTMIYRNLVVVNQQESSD

In this test the target is p53-MDM2 interaction (GST-MDM2 protein aa 23-117 / biotinylated p53 wt peptide) (Homo sapiens (Human), UniProt Q00987). As to the kind of experiment: Mdm2-p53 Inhibition AlphaScreen. It is filed as binding. The conditions noted are these: GST-MDM2 (aa 23-117) / biotinylated p53 wt peptide. On the procedure:
Mdm2-p53 Inhibition AlphaScreen
15 μL of compound in 20% DMSO (serial pre-dilutions of compound are done in 100% DMSO) is pipetted to the wells of a white OptiPlate-96 (Perkin Elmer). A mix consisting of 20 nM GST-MDM2 protein (aa 23-117) and 20 nM biotinylated p53 wt peptide (encompassing aa 16-27 of wt human p53, amino acid sequence […]-Ttds-Lys-Biotin, molecular weight 2132.56 g/mol) is prepared in assay buffer (50 mM Tris/HCl pH 7.2; 120 mM NaCl; 0.1% bovine serum albumin (BSA); 5 mM dithiothreitol (DTT); 1 mM ethylenediaminetetraacetic acid (EDTA); 0.01% Tween 20). 30 μL of the mix is added to the compound dilutions and incubated for 15 min at rt while gently shaking the plate at 300 rounds per minute (rpm). Subsequently, 15 μL of premixed AlphaLISA Glutathione Acceptor Beads and AlphaScreen Streptavidin Donor Beads from PerkinElmer (in assay buffer at a concentration of 10 μg/mL each) are added and the samples are incubated for 30 min at rt in the dark (shaking 300 rpm). Afterwards, the signal is measured in a PerkinElmer Envision HIS Multilabel Reader using the AlphaScreen protocol from Perkin Elmer.
Each plate contains negative controls where biotinylated p53-peptide and GST-MDM2 are left out and replaced by assay buffer. Negative control values are entered as low basis value when using the software GraphPad Prism for calculations. Furthermore, a positive control (5% DMSO instead of test compound; with protein/peptide mix) is pipetted. Determination of IC50 values are carried out using GraphPad Prism 3.03 software (or updates thereof).
(Alpha assays give light when donor and acceptor beads are brought close together.)
The molecule `COC(=O)c1ccc2c3n(nc2c1C)[C@@H]1[C@H](C3)N(CC2CC2)[C@@]2(C(=O)Nc3cc(Cl)ccc32)[C@H]1c1cccc(Cl)c1F` [Ia-20] had an IC50 of 23 nM.

The molecule `O=C(O)c1ccc2c3n(nc2c1)[C@@H]1[C@H](C3)N(CC2CC2)[C@@]2(C(=O)Nc3cc(Cl)ccc32)[C@H]1c1cccc(Cl)c1F` [Ia-25] had an IC50 of 2 nM. Compared with the last molecule, the IC50 is about 12-fold lower.

`O=C(O)c1ccc2c3n(nc2c1)[C@@H]1[C@H](C3)N(CC2CCC2)[C@@]2(C(=O)Nc3cc(Cl)ccc32)[C@H]1c1cccc(Cl)c1F` [Ia-26] came in with an IC50 of 4 nM.

For the molecule `CC(C)CN1[C@H]2Cc3c4ccc(C(=O)O)cc4nn3[C@H]2[C@H](c2cccc(Cl)c2F)[C@]12C(=O)Nc1cc(Cl)ccc12` [Ia-27], the IC50 turned out to be 2 nM.

`CCCN1[C@H]2Cc3c4ccc(C(=O)O)cc4nn3[C@H]2[C@H](c2cccc(Cl)c2F)[C@]12C(=O)Nc1cc(Cl)ccc12` [Ia-29] gave an IC50 of 2 nM.

Take `CCN1[C@H]2Cc3c4ccc(C(=O)O)cc4nn3[C@H]2[C@H](c2cccc(Cl)c2F)[C@]12C(=O)Nc1cc(Cl)ccc12` [Ia-30]: the IC50 was 2 nM.

Take `COCCN1[C@H]2Cc3c4ccc(C(=O)O)cc4nn3[C@H]2[C@H](c2cccc(Cl)c2F)[C@]12C(=O)Nc1cc(Cl)ccc12` [Ia-31]: half-maximal inhibition (IC50) was put at 3 nM. This IC50 is about 1.5-fold higher than that of the molecule before.

The molecule `CCOc1cccc(CN2[C@H]3Cc4c5ccc(C(=O)O)cc5nn4[C@H]3[C@H](c3cccc(Cl)c3F)[C@]23C(=O)Nc2cc(Cl)ccc23)c1` [Ia-32] gave an IC50 of 2 nM.

Consider `Cc1cc2c3n(nc2cc1C(=O)O)[C@@H]1[C@H](C3)N(CC2CC2)[C@@]2(C(=O)Nc3cc(Cl)ccc32)[C@H]1c1cccc(Cl)c1F` [Ia-33], for which the IC50 was determined as 3 nM.

As for `Cc1c(C(=O)O)ccc2c3n(nc12)[C@@H]1[C@H](C3)N(CC2CC2)[C@@]2(C(=O)Nc3cc(Cl)ccc32)[C@H]1c1cccc(Cl)c1F` [Ia-34], the IC50 stood at 2 nM.

The molecule `COc1cc2c3n(nc2cc1C(=O)O)[C@@H]1[C@H](C3)N(CC2CC2)[C@@]2(C(=O)Nc3cc(Cl)ccc32)[C@H]1c1cccc(Cl)c1F` [Ia-35] had an IC50 of 2 nM.

In the case of `COc1c(C(=O)O)ccc2c3n(nc12)[C@@H]1[C@H](C3)N(CC2CC2)[C@@]2(C(=O)Nc3cc(Cl)ccc32)[C@H]1c1cccc(Cl)c1F` [Ia-36], the IC50 was 5 nM. This IC50 lies about 2.5-fold higher than the previous one.

For the molecule `O=C(O)c1ccc2nn3c(c2c1)C[C@H]1[C@@H]3[C@H](c2cccc(Cl)c2F)[C@]2(C(=O)Nc3cc(Cl)ccc32)N1CC1CC1` [Ia-38], half-maximal inhibition (IC50) was put at 2 nM.

`Cc1cc2c3n(nc2cc1C(=O)O)[C@@H]1[C@H](C3)N(CC(C)C)[C@@]2(C(=O)Nc3cc(Cl)ccc32)[C@H]1c1cccc(Cl)c1F` [Ia-39] came in with an IC50 of 4 nM.

In turn, `CCOc1cccc(CN2[C@H]3Cc4c5cc(C)c(C(=O)O)cc5nn4[C@H]3[C@H](c3cccc(Cl)c3F)[C@]23C(=O)Nc2cc(Cl)ccc23)c1` [Ia-40] had an IC50 of 2 nM.

On to `O=C(O)c1ccc2c3n(nc2c1)[C@@H]1[C@H](C3)N(CC2CC2)[C@@]2(C(=O)Nc3cc(Cl)ccc32)[C@H]1c1ccnc(Cl)c1F` [Ia-41], for which the IC50 was found to be 3 nM.

Molecule `O=C(O)c1ccc2c3n(nc2c1)[C@@H]1[C@H](C3)N(CC2CC2)[C@@]2(C(=O)Nc3nc(Cl)ccc32)[C@H]1c1cccc(Cl)c1F` [Ia-43] yielded an IC50 of 2 nM.

In the case of `CC(C)(O)CNC(=O)c1ccc2c3n(nc2c1)[C@@H]1[C@H](C3)N(CC2CCC2)[C@@]2(C(=O)Nc3cc(Cl)ccc32)[C@H]1c1cccc(Cl)c1F` [Ia-46], half-maximal inhibition (IC50) required 8 nM. Against the preceding molecule, the IC50 is about 4-fold higher.

Molecule `O=C(NC1CC1)c1ccc2c3n(nc2c1)[C@@H]1[C@H](C3)N(CC2CCC2)[C@@]2(C(=O)Nc3cc(Cl)ccc32)[C@H]1c1cccc(Cl)c1F` [Ia-47] returned an IC50 of 9 nM.

Take `COCC(COC)NC(=O)c1ccc2c3n(nc2c1)[C@@H]1[C@H](C3)N(CC2CCC2)[C@@]2(C(=O)Nc3cc(Cl)ccc32)[C@H]1c1cccc(Cl)c1F` [Ia-48]: half-maximal inhibition (IC50) was put at 10 nM.

In turn, `COCCOCCNC(=O)c1ccc2c3n(nc2c1)[C@@H]1[C@H](C3)N(CC2CCC2)[C@@]2(C(=O)Nc3cc(Cl)ccc32)[C@H]1c1cccc(Cl)c1F` [Ia-49] gave an IC50 of 6 nM. This IC50 lies about 1.7-fold lower than the previous one.

`CCN1[C@H]2Cc3c4ccc(C(=O)NCCO)cc4nn3[C@H]2[C@H](c2cccc(Cl)c2F)[C@]12C(=O)Nc1cc(Cl)ccc12` [Ia-50] showed an IC50 of 4 nM.

Consider `CCN1[C@H]2Cc3c4ccc(C(=O)NCCN(C)C)cc4nn3[C@H]2[C@H](c2cccc(Cl)c2F)[C@]12C(=O)Nc1cc(Cl)ccc12` [Ia-51], for which the IC50 was 7 nM.

For `CCN1[C@H]2Cc3c4ccc(C(=O)N5CCCCC5)cc4nn3[C@H]2[C@H](c2cccc(Cl)c2F)[C@]12C(=O)Nc1cc(Cl)ccc12` [Ia-52], the IC50 came to 69 nM.

Turning to `CCN1[C@H]2Cc3c4ccc(C(=O)NC5(C)COC5)cc4nn3[C@H]2[C@H](c2cccc(Cl)c2F)[C@]12C(=O)Nc1cc(Cl)ccc12` [Ia-53], the IC50 was 7 nM.

Turning to `CCOc1cccc(CN2[C@H]3Cc4c5cc(C)c(C(=O)N6CCOCC6)cc5nn4[C@H]3[C@H](c3cccc(Cl)c3F)[C@]23C(=O)Nc2cc(Cl)ccc23)c1` [Ia-54], the IC50 was determined as 13 nM.

Consider `CCOc1cccc(CN2[C@H]3Cc4c5cc(C)c(C(=O)NCCOC)cc5nn4[C@H]3[C@H](c3cccc(Cl)c3F)[C@]23C(=O)Nc2cc(Cl)ccc23)c1` [Ia-55], for which the midpoint of inhibition, the IC50, lay at 6 nM.

`CCOc1cccc(CN2[C@H]3Cc4c5cc(C)c(C(=O)NC)cc5nn4[C@H]3[C@H](c3cccc(Cl)c3F)[C@]23C(=O)Nc2cc(Cl)ccc23)c1` [Ia-56] registered an IC50 of 5 nM.

`CCOc1cccc(CN2[C@H]3Cc4c5cc(C)c(C(=O)N(C)C)cc5nn4[C@H]3[C@H](c3cccc(Cl)c3F)[C@]23C(=O)Nc2cc(Cl)ccc23)c1` [Ia-57] returned an IC50 of 13 nM.

Molecule `CCOc1cccc(CN2[C@H]3Cn4c(nc5cc(C(=O)OC)ccc54)[C@H]3[C@H](c3cccc(Cl)c3F)[C@]23C(=O)Nc2cc(Cl)ccc23)c1` [Ib-49] returned an IC50 of 5 nM.

The molecule `CS(=O)(=O)c1ccc2c(c1)nc1n2CC[C@H]2[C@@H]1[C@H](c1cccc(Cl)c1F)[C@]1(C(=O)Nc3cc(Cl)ccc31)N2CC1CC1` [Ib-57] registered an IC50 of 12 nM.

For the molecule `CS(=O)(=O)c1ccc2c(c1)nc1n2CC[C@H]2[C@@H]1[C@H](c1cccc(Cl)c1F)[C@]1(C(=O)Nc3cc(Cl)ccc31)N2CC1CC1` [Ib-58], the IC50 was determined as 7 nM.

Regarding `CC(=O)Nc1ccc2c(c1)nc1n2CC[C@H]2[C@@H]1[C@H](c1cccc(Cl)c1F)[C@]1(C(=O)Nc3cc(Cl)ccc31)N2CC1CC1` [Ib-59], the IC50 was determined as 15 nM.

On to `COC(=O)c1ccc2c(c1)nc1n2CC[C@H]2[C@@H]1[C@H](c1cccc(Cl)c1F)[C@]1(C(=O)Nc3cc(Cl)ccc31)N2CC=C(C)C` [Ib-66], for which the IC50 was determined as 166 nM.

For `O=C(O)c1ccc2c(c1)nc1n2CC[C@H]2[C@@H]1[C@H](c1cccc(Cl)c1F)[C@]1(C(=O)Nc3cc(Cl)ccc31)N2CC1CC1` [Ib-106], it took 3 nM to reach half-maximal inhibition (IC50).

`O=C(O)c1ccc2c(c1)nc1n2CC[C@H]2[C@@H]1[C@H](c1cccc(Cl)c1F)[C@]1(C(=O)Nc3cc(Cl)ccc31)N2CC1CC1` [Ib-107] yielded an IC50 of 2 nM.

`O=C(O)c1ccc2c(c1)nc1n2CC[C@@H]2[C@H]1[C@@H](c1cccc(Cl)c1F)[C@@]1(C(=O)Nc3cc(Cl)ccc31)N2CC1CC1` [Ib-108] registered an IC50 of 79 nM.

Molecule `CC(C)CN1[C@H]2CCn3c(nc4cc(C(=O)O)ccc43)[C@H]2[C@H](c2cccc(Cl)c2F)[C@]12C(=O)Nc1cc(Cl)ccc12` [Ib-109] showed a half-maximal inhibitory concentration (IC50) of 8 nM. Against the preceding molecule, the IC50 is about 9.9-fold lower.

As to `CC(C)CN1[C@H]2CCn3c(nc4cc(C(=O)O)ccc43)[C@H]2[C@H](c2cccc(Cl)c2F)[C@]12C(=O)Nc1cc(Cl)ccc12` [Ib-110], 3 nM corresponded to half-maximal inhibition (IC50).

In the case of `CCN1[C@H]2CCn3c(nc4cc(C(=O)O)ccc43)[C@H]2[C@H](c2cccc(Cl)c2F)[C@]12C(=O)Nc1cc(Cl)ccc12` [Ib-111], inhibition was half-maximal at 7 nM (IC50). Compared with the last molecule, the IC50 is about 2.3-fold higher.

Turning to `CCCN1[C@H]2CCn3c(nc4cc(C(=O)O)ccc43)[C@H]2[C@H](c2cccc(Cl)c2F)[C@]12C(=O)Nc1cc(Cl)ccc12` [Ib-113], the IC50 was found to be 4 nM.

As for `CCCCN1[C@H]2CCn3c(nc4cc(C(=O)O)ccc43)[C@H]2[C@H](c2cccc(Cl)c2F)[C@]12C(=O)Nc1cc(Cl)ccc12` [Ib-115], the IC50 amounted to 7 nM.

As to `CCCCCN1[C@H]2CCn3c(nc4cc(C(=O)O)ccc43)[C@H]2[C@H](c2cccc(Cl)c2F)[C@]12C(=O)Nc1cc(Cl)ccc12` [Ib-117], the IC50 came to 8 nM. The IC50 values of the last two molecules are within 1.5-fold of each other.

Regarding `CC(C)CCN1[C@H]2CCn3c(nc4cc(C(=O)O)ccc43)[C@H]2[C@H](c2cccc(Cl)c2F)[C@]12C(=O)Nc1cc(Cl)ccc12` [Ib-119], the 50% inhibitory concentration (IC50) is 12 nM. This IC50 lies about 1.5-fold higher than the previous one.

As to `CC(C)=CCN1[C@H]2CCn3c(nc4cc(C(=O)O)ccc43)[C@H]2[C@H](c2cccc(Cl)c2F)[C@]12C(=O)Nc1cc(Cl)ccc12` [Ib-121], the IC50 came to 11 nM. The IC50 values of the last two molecules are within 1.5-fold of each other.

The molecule `O=C(O)c1ccc2c(c1)nc1n2CC[C@H]2[C@@H]1[C@H](c1cccc(Cl)c1F)[C@]1(C(=O)Nc3cc(Cl)ccc31)N2CC1CCC1` [Ib-123] yielded an IC50 of 4 nM.

`O=C(O)c1ccc2c(c1)nc1n2CC[C@H]2[C@@H]1[C@H](c1cccc(Cl)c1F)[C@]1(C(=O)Nc3cc(Cl)ccc31)N2CC1CC(F)(F)C1` [Ib-125] displayed an IC50 of 14 nM.

As usually defined, the IC50 is the point on the concentration scale where inhibition reaches its midpoint.
